# Results reported in patent US20210009583A1, “DEUTERATED IMIDAZOPYRIDINES” (UNIVERSITY OF NOTRE DAME DU LAC, priority 2018, published 2021).
# Several values for one entry are separate records, joined by “and”; a condition that tells them apart may be missing. Equal entries are not always repeated. Marks after values point to notes of the source that are not given here.
# How the values were obtained:
# M. tuberculosis = test: Chronic Balb/c mouse model of M. tuberculosis infection; assay type: in vivo
# [1] = Body weight at gross necropsy after 4 weeks of treatment (chronic model); assay type: in vivo, Balb/c mouse; conditions: Group 8, INH, individual mice
# Experimental: When evaluated in the “Chronic Balb/c mouse model” of M. tuberculosis infection by the method of Lenaerts, A. J., et. al. 2005. Preclinical testing of the nitroimidazopyran PA-824 for activity against M. tuberculosis in a series of in vitro and in vivo models. AAC. 49(6):2294-301. ND-012101 at 200 mg/kg and ND-012101(100 mg/kg)+ABT (100 mg/kg) both achieved 100% mouse survival after 4 weeks of oral dosing.
compound,measurement,setting,value
"NNC(=O)c1ccncc1 [INH, Isoniazid, reference compound]","Spleen, gross necropsy observation","M. tuberculosis; Group 8, INH, after 4 weeks of treatment, individual mice",enlarged
same,Lung Log10 CFU ± SEM,"M. tuberculosis; INH (25), 4 Week Treatment",4.06 ± 0.11 Log10 CFU
same,Spleen Log10 CFU ± SEM,"M. tuberculosis; INH (25), 4 Week Treatment",2.13 ± 0.12^a Log10 CFU
same,Log reduction vs CTL (Lg),"M. tuberculosis; lung, INH (25), 4 Week Treatment",1.73
same,Log reduction vs CTL (Sp),"M. tuberculosis; spleen, INH (25), 4 Week Treatment",2.87
same,Weight,[1],19.6 and 20.2 and 20.1 and 19.9 and 19.2 and 20.8
